Data as given in patent US20230398125A1, “TREATING HEPATITIS” (Albireo AB, priority 2022, published 2023).
pIC50: −log10 of the molar value.

Assays:
Human NTCP [1] = molecular target: T1, Human NTCP (Homo sapiens, UniProt Q14973); assay: [3H]TC transport in NTCP-HEK293 cells; format: cell-based; conditions: read-out: IC50 [3H]taurocholic acid uptake
T1 construct: expressed in transfected cells; peptide purchased from Pharmaron
T1 sequence (Q14973 1-349): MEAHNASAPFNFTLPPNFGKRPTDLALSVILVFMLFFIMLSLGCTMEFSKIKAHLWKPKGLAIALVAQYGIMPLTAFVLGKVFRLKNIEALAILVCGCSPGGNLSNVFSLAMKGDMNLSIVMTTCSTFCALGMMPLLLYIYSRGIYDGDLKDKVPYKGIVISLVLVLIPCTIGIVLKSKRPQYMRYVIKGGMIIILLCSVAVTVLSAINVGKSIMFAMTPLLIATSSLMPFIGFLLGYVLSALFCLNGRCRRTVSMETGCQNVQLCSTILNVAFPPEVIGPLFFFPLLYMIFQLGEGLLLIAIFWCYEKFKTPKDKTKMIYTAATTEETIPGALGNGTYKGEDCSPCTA
Description: (§1) Human embryonic kidney (HEK293) cells were stably transfected with human NTCP, C-terminally tagged with the FLAG epitope (here referred to as NTCP-HEK293 cells). Cells were maintained at 37° C., 5% CO2 and 95% humidity in DMEM/F-12 medium (Thermo Fisher Scientific, Waltham, Mass., USA) supplemented with 10% fetal calf serum (Sigma-Aldrich, St. Louis, Mo., USA), 4 mM L-glutamine, and penicillin/streptomycin. HepG2 cells stably transfected with NTCP-FLAG (here referred to as NTCP-HepG2) were cultured under the same conditions in DMEM with all supplements listed above, except for L-glutamine. […]
(§2) Bile acid transport measurements were performed in the NTCP-HEK293 cells with tritium-labelled taurocholic acid (here referred to as [^3H]TC) (20 Ci/mmol, 0.09 mCi/mL, Perkin Elmer, Waltham, USA). […] Cell-associated radioactivity of [^3H]TC or [^3H]preS1 was quantified by liquid scintillation counting in a Packard Microplate Scintillation Counter TopCount NXT (Packard Instrument Company, Meriden, USA). Transport rates and [^3H]preS1 binding were determined in counts per minute (cpm). The mean of the 0% control was subtracted and the net [^3H]TC transport rates and net [^3H]preS1 binding rates, respectively, were expressed as % of control. IC50 values were calculated from quadruplicate determinations by GraphPad Prism 6 (GraphPad, San Diego, Calif., USA). […]

[2] = test system: HBV (HepG2 AD38 genotype D); assay: Combination of Compound 1 with tenofovir in HBV-infected primary human hepatocytes (MacSynergy II); format: cell-based, hepatitis B virus; conditions: summary of studies
Description: In two sets of experiments, the effect of combining Compound 1 with tenofovir was studied. Effects of the drug combination were calculated based on the activity of the two compounds when tested alone. The expected additive antiviral protection (based on the dose response curves of the individual agents used alone) was subtracted from the experimentally determined antiviral activity at each combination concentration resulting in a positive value (synergy), a negative value (antagonism), or zero (additivity). […] The results of the combination assays were expressed as a synergy volume μM2% calculated at the 95% confidence interval using the MacSynergy II template.
For these studies, synergy was defined as drug combinations yielding synergy volumes greater than 50 μM2%. Slightly synergistic activity and highly synergistic activity have been defined as yielding synergy volumes of […] and >100 μM2%, respectively.
Synergy volumes between −50 and 50 μM2% were considered additive and synergy volumes less than −50 μM2% were considered antagonistic.

Human NTCP [3] = molecular target: T1, Human NTCP; assay: [3H]preS1 peptide binding to NTCP-HEK293 cells
Description: as §1, §2

`CCCCC1CN(c2ccccc2)c2cc(SC)c(O/C=C(\F)C(=O)O)cc2S(=O)(=O)N1C` (stereo not drawn) [Compound 1, (Z)-3-((3-butyl-2-methyl-7-(methylthio)-1,1-dioxido-5-phenyl-2,3,4,5-tetrahydro-1,2,5-benzothiadiazepin-8-yl)oxy)-2-fluoroacrylic acid] was tested, and the pIC50 (Human NTCP [1]) was 6.73, the “antiviral effect when given together with tenofovir disoproxil fumarate” value [2] was “additive” and the pIC50 (Human NTCP [3]) was 6.83.
